Here are results for one compound from patent US20240132461A1, “FLAVONE DEAZA SPERMIDINE ANALOGUES AND THEIR USE TREATING CANCER” (FLORATEK PHARMA S.A., priority 2021, published 2024).

Some results are limits rather than exact numbers.

The test system of one series is LU-01-0025. Put plainly: PDX cytotoxicity assay, lung carcinoma PDX LU-01-0025. It counts as cell-based. On the procedure: (§1) PDX-derived cell cultures were obtained from tumors explanted from mice and isolated by mechanical and enzymatic dissociation. […] Cells were harvested and seeded in 96-wells plates at a density of 1.25 to 5×10^3 cells/well for cytotoxicity assays. Cells were incubated 48 h at 37° C. prior to addition of test molecules and vehicle (DMSO, 0.1%) at desired final concentrations. Cell viability was assessed before drugs' addition (T0) and 5 days after test molecules addition by measuring ATP cell content using CellTiter-Glo® Luminescent Cell Viability Assay (Promega) according to the manufacturer's instructions. Luciferase activity was measured on a luminometer (PerkinElmer® EnVision™). Each concentration of compounds was tested in triplicate.
(§2) Viability was calculated as a percentage of ATP value compared to vehicle treated controls.
(§3) For PDX primary cell cultures, the tumour tissue was washed with PBS containing antibiotic-antimycotic and non-tumour tissue and necrotic tumour tissues were separated. The tumour tissue was transferred to a new dish and cut into 1˜2 mm^3 fragments, resuspended in RPMI-1640 medium and centrifuged at 1,200 rpm for 6 min at room temperature. The pelleted material was resuspended with 15 mL of Tumour Cell Digestion Solution and incubated at 37° C. for 1 hour with agitation. […]

The test system of series [1] is U87MG human glioblastoma cells. Put plainly: In vivo tumour inhibition of xenograft human glioblastoma U87MG. The conditions noted are these: 10 mg/kg/inj i.p. qod.
A further series relates to CH-17-0091. Put plainly: PDX cytotoxicity assay, bile duct PDX CH-17-0091. It counts as cell-based. On the procedure: as §1, §2, §3
The target of the next series is T1, SNARK (Homo sapiens, UniProt Q9H093).
T1 construct: purchased Eurofins (KINOMEscan assay service); host or cells: E. coli BL21-derived (T7 phage) or HEK-293
The series can be described thus: KINOMEscan competition binding assay, SNARK. The source says:
(§4) The Hill Slope was set to −1.

The next series deals with K562. The series can be described thus: Cell viability assay, leukaemia cell line K562. It counts as cell-based. Conditions: Homo sapiens. On the procedure:
(§5) Antitumor activity of the compounds and doxorubicin as a positive control was assessed by using the CellTiter-Blue Cell Viability Assay (Promega, #G8082) or CellTiter-Glow® Luminescent Cell Viability assay (Promega # G7572) according to the manufacturer's instructions. The compounds were tested at 5 or 6 concentrations in half-log increments (highest concentration 30 μM-100 μM) in duplicate or triplicate well conditions.
(§6) Tumor cells were grown at 37° C. in a humidified atmosphere with 5% CO2 in RPMI 1640 or DMEM medium, supplemented with 10% (v/v) fetal calf serum and 50 μg/ml gentamicin for up to 20 passages, and were passaged once or twice weekly. Cells were harvested using TrypLE or PBS buffer containing 1 mM EDTA, and the percentage of viable cells is determined using a CASY Model TT cell counter (OMNI Life Science). Cells were harvested from exponential phase cultures, counted and plated in 96 well flat-bottom microtiter plates at a cell density depending on the cell line's growth rate (4,000-20,000 cells/well depending on the cell line's growth rate, up to 60,000 for hematological cancer cell lines) in RPMI 1640 or DMEM medium supplemented with 10% (v/v) fetal calf serum and 50 μg/ml gentamicin (140 μl/well). […] Viability of cells was quantified by the CellTiter-Blue® cell viability assay (Promega G8081) or CellTiter-Glow® Luminescent Cell Viability assay (Promega # G7572). […]

The next series deals with NAWALMA. Put plainly: Cell viability assay, lymphoma cell line NAWALMA. It counts as cell-based. On the procedure: as §5, §6
Series [2] is described as follows: In vivo maximum tolerated dose in NOG mice. On the procedure:
In order to evaluate the general toxicity of selected SND compounds in an animal model, a maximum tolerated dose (MTD) in NOG mice has been undertaken. Three mice per group were treated daily or every other day over 8 days at various doses between 5 mg/kg and 10 mg/kg. Administration of the compounds was i.p. A stock solution of the compounds (40 mg/ml in DMSO) was prepared and frozen at −20° C. in aliquots for each treatment. […] Body weights were measured before each treatment. Mice were further observed for 1 week after the last treatment.

Another series deals with MCF-7. The series can be described thus: Cell viability assay, breast carcinoma cell line MCF-7. It counts as cell-based. The conditions noted are these: Homo sapiens, MCF7; MCF-7 breast carcinoma cell line. On the procedure: as §5, §6
In a further series the test system is lung carcinoma cell. Put plainly: Cell viability assay, lung carcinoma cell lines (summary). It counts as cell-based. The conditions noted are these: summary of Tables 7A-E; read-out: IC50s, lung carcinoma cell growth. On the procedure: as §5
(§7) Tumor cells were grown at 37° C. in a humidified atmosphere with 5% CO2 in RPMI 1640 or DMEM medium, supplemented with 10% (v/v) fetal calf serum and 50 μg/ml gentamicin for up to 20 passages, and were passaged once or twice weekly. Cells were harvested using TrypLE or PBS buffer containing 1 mM EDTA, and the percentage of viable cells is determined using a CASY Model TT cell counter (OMNI Life Science). Cells were harvested from exponential phase cultures, counted and plated in 96 well flat-bottom microtiter plates at a cell density depending on the cell line's growth rate (4,000-20,000 cells/well depending on the cell line's growth rate, up to 60,000 for hematological cancer cell lines) in RPMI 1640 or DMEM medium supplemented with 10% (v/v) fetal calf serum and 50 μg/ml gentamicin (140 μl/well). Cultures were incubated at 37° C. and 5% CO2 in a humidified atmosphere. After 24 h, 10 μl of test compounds or control medium are added, and left on the cells for another 72 h. Compounds were serially diluted in DMSO, transferred in cell culture medium, and added to the assay plates. The DMSO concentration was kept constant at <0.3% v/v across the assay plate. Viability of cells was quantified by the CellTiter-Blue® cell viability assay (Promega G8081) or CellTiter-Glow® Luminescent Cell Viability assay (Promega # G7572). Fluorescence (FU) was measured by using the EnSpire® multimode plate reader (Perkin Elmer) (excitation λ=570 nm, emission λ=600 nm) or luminescent detection of ATP in viable cells was used as parameter for proliferation. Luminescence was measured with the microplate luminometer (Promega or Perkin Elmer).
(§8) Sigmoidal concentration-response curves were fitted to the data points (test-versus-control, T/C values) obtained for each tumor model using 4 parameter non-linear curve fit (Charles River DRS Datawarehouse Software) or with GraphPad prism 5.02 software. IC50 values are reported as absolute IC50 values, being the concentration of test compound at the intersection of the concentration-response curves with T/C=50%

For a further series, the system named is GA-10. Put plainly: Cell viability assay, lymphoma cell line GA-10. The format is cell-based. The conditions noted are these: Homo sapiens; GA-10 lymphoma cell line. On the procedure:
as §5, §6

Another series deals with breast cancer cell. Put plainly: Cell viability assay, breast cancer cell lines (summary). It counts as cell-based. The conditions noted are these: summary of Tables 4A and 4B; read-out: IC50s, breast cancer cell growth. On the procedure: as §5, §7, §8
Another series concerns CO-04-0700. Put plainly: PDX cytotoxicity assay, colon PDX CO-04-0700. It counts as cell-based. On the procedure:
as §1, §2, §3

For series [3], the target named is T2, RSK2(Kin.Dom.1-N-terminal) (Homo sapiens, UniProt P51812).
T2 construct: RSK2(Kin.Dom.1-N-terminal); purchased Eurofins (KINOMEscan assay service); host or cells: E. coli BL21-derived (T7 phage) or HEK-293
The series can be described thus: KINOMEscan competition binding assay, RSK2(Kin.Dom.1-N-terminal).
Excerpt: as §4

T1 sequence (Q9H093 whole entry): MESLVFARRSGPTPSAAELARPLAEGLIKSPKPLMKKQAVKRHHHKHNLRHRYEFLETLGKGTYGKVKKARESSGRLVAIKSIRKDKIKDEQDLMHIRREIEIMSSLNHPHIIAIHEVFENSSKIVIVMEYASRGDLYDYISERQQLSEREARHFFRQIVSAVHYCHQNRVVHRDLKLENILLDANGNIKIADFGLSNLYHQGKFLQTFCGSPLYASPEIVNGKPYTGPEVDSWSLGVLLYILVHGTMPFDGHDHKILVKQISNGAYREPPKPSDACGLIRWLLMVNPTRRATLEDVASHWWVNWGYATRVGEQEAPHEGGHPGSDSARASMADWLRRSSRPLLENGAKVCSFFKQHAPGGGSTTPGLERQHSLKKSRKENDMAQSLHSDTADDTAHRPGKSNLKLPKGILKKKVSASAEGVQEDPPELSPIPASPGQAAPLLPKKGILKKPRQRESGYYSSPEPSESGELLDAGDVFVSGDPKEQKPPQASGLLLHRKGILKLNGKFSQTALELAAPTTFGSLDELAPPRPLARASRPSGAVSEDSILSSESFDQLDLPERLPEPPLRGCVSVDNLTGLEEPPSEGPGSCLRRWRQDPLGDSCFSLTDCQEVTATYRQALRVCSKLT
T2 sequence (P51812 68-327 limits assumed): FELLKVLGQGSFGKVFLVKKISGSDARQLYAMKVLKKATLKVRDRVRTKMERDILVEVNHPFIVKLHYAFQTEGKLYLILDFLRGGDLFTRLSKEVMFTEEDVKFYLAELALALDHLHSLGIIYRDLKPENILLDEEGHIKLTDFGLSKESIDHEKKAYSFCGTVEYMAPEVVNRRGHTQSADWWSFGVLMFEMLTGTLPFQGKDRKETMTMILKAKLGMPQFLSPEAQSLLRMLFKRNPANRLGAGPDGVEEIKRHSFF

As for `COc1c(O)ccc2c(=O)cc(-c3ccc(CNCCCCNCCCN)cc3)oc12` [SND164], the IC50 was 5 µM in the series with LU-01-0025; 13.8 µM in the series on CH-17-0091; 3.48 µM with K562; 2.6 µM in the series on NAWALMA; 4.3 µM in the series on MCF-7; less than 20 µM in the series on lung carcinoma cell. The values for the IC50 with GA-10, in the series on breast cancer cell and in the series with CO-04-0700 were 3.9 µM, less than 10 µM and 7 µM, respectively. Moreover, the body weight loss result in series [1] (U87MG xenograft mice) is “no significant body weight loss”. In addition, the “death during the study” value in [1] (U87MG xenograft mice) was “no death”. Further, in series [1] (U87MG xenograft mice), the “tolerability of the treatment” value is on record as “well tolerated”. Further, the “Optimum T/C, day 26” value in series [1] (glioblastoma U87MG CDX s.c. in nude mice, 10 injections, ***P < 0.001 vs vehicle) is listed as 54***. For the same compound, the Kd on SNARK is 0.9 µM; in series [3] it was 1.4 µM. For the same compound, the “tolerability at the highest dose administered” value in series [2] (8-10 mg/kg i.p., daily or every other day over 8 days) is listed as “well tolerated”. The MTD at 8 days in [2] (mouse, in vivo, ip, repeated i.p. administration, MTD not reached, read-out: maximum tolerated dose (MTD), estimated) was greater than 10 mg/kg.

Broadly, the Kd is the equilibrium constant for the complex coming apart. Higher therefore signals weaker binding. As usually defined, the MTD is the largest dose that counted as tolerated.
